{
  "source": "patent US20150118305A1",
  "about": "“COMPOSITIONS COMPRISING SULFORAPHANE OR A SULFORAPHANE PRECURSOR AND URSOLIC ACID” (Nutramax Laboratories, Inc., priority 2012, published 2015)",
  "key": {"[1]": {"test_system": "broccoli sprout-derived myrosinase", "experiment": "Consumption of glucoraphanin by myrosinase as a function of ascorbic acid concentration (Example 3)", "type": "biochemical", "details": "for glucoraphanin (GR) content of reaction mixture: 38° C.", "experimental": "About 250 mg of broccoli seed extract containing about 12% (w/w) glucoraphanin were subjected to hydrolysis by a fixed concentration of broccoli sprout-derived myrosinase in the presence of variable concentration of ascorbic acid, ranging from 0 to 600 μmoles/Liter. The reaction mixtures were thermostated at 38° C.; aliquots were withdrawn every 15 minutes for 60 minutes, and concentration of glucoraphanin determined chromatographically. The rate of glucoraphanin consumption was interpreted as the rate its conversion to sulforaphane. Graphical representation of glucoraphanin content reduction as a function of increasing ascorbic acid concentration results in a series of linear plots; the slopes of the linear regression lines reflect the rate of glucoraphanin consumption, in pmoles/minute. It is apparent that in the presence of 600 μmoles/Liter concentration of ascorbic acid, the reaction rate increased 13-fold relative to that which proceeded in the absence of modulatory effects of ascorbic acid."}, "myrosinase [2]": {"test_system": "myrosinase", "experiment": "Equimolar conversion of glucoraphanin to sulforaphane, ascorbic acid modulating myrosinase activity (Example 4)", "type": "biochemical", "details": "Part 2; 250 mg broccoli seed extract", "experimental": "A two-part experiment was conducted to further elucidate the role of ascorbic acid in modulating myrosinase activity. […] A control sample contained no ascorbic acid, and the enzymatic conversion proceeded unassisted by a co-factor. PART 1. […] PART 2. While keeping the amount of broccoli seed extract fixed at 250 mg, the concentration of ascorbic acid was varied from 0.4 mmol/Liter to 3.8 mmol/Liter."}, "myrosinase [3]": {"test_system": "myrosinase", "experiment": "Conversion of glucoraphanin to sulforaphane in Simulated Intestinal Fluid (Example 5)", "type": "biochemical, broccoli", "details": "38° C., 0.25 to 1.00 mmol/Liter ascorbic acid, FIG. 4", "experimental": "Simulated Intestinal Fluid (SIF) powder, a commercially supplied concentrate closely approximating the human intestinal content in terms of composition, pH and ionic strength, was used. The experiment utilized a USP Dissolution Apparatus 2 (paddles), where into six dissolution vessels 500 mL of Simulated Intestinal Fluid was dispensed, along with 150 mg of freeze-dried broccoli sprout powder as a source of myrosinase. […] Aliquots were withdrawn every 15 minutes, and assayed for sulforaphane."}, "[4]": {"test_system": "matrix metalloproteinase-9 (MMP-9) gene expression", "experiment": "MMP-9 gene expression in PC3 cells by quantitative RT-PCR (Example 6)", "type": "cell-based", "details": "PC3, 24 hours", "experimental": "The following study was conducted to determine the effect of the combination of sulforaphane and ursolic acid on matrix metalloproteinase-9 (MMP-9) gene expression. The MMP-9 gene encodes the protein that is known to degrade the extracellular matrix, which is the support system of cells. In prostate, colon, brain, and other cancers, MMP9 expression is increased, and this increase has been correlated with metastasis. A decrease in MMP-9 is favorable for these cancers.\nIn the study, the prostate cancer cell line PC3 was treated with DMSO (vehicle control), sulforaphane (SFN), ursolic acid (UA), or the combination of sulforaphane and ursolic acid, for 24 hours. Gene expression of MMP-9 was analyzed via quantitative RT-PCR. FIGS. 5a and 5b and FIG. C show the results of the study.\nTwo separate treatments were conducted. […] The following reductions in gene expression of MMP-9 were observed: (i) a 5% decrease with 1 μM SFN alone, (ii) a 31% decrease with 5 μg/mL UA alone, and (iii) a 40% decrease with the combination of 1 μM SFN and 5 μg/mL UA. […] The following reductions in gene expression of MMP-9 were observed: (i) a 13% decrease with 1 μM SFN alone, (ii) a 28% decrease with 5 μg/mL UA alone, and (iii) a 45% decrease with the combination of 1 μM SFN and 5 μg/mL UA.\nThe following reductions in gene expression of MMP-9 were observed: (i) a 39% decrease with 5 μM SFN alone, (ii) a 15% decrease with 10 μg/mL UA alone, and (iii) a 59% decrease with the combination of 5 μM SFN and 10 μg/mL UA."}, "[5]": {"test_system": "NAD(P)H:quinine oxidoreductase (NQO1)", "details": "oral administration; mammary epithelium; cited from earlier work"}, "heme oxygenase-1 (HO-1)": {"test_system": "heme oxygenase-1 (HO-1)", "details": "oral administration; mammary epithelium; cited from earlier work"}},
  "data": [
    {"smiles": "O=C1O[C@H]([C@@H](O)CO)C(O)=C1O", "note": "[Ascorbic Acid, ascorbic acid]", "values": [
      {"measurement": "Slope of linear regression (rate of glucoraphanin consumption)", "setting": "[1]; 50 μM ascorbic acid", "result": -0.286, "unit": "µmol/min"},
      {"measurement": "glucoraphanin (GR) content of reaction mixture", "setting": "[1]; 50 μM ascorbic acid, 0 min", "result": 93.36, "unit": "µmol"},
      {"measurement": "glucoraphanin (GR) content of reaction mixture", "setting": "[1]; 50 μM ascorbic acid, 15 min", "result": 89.20, "unit": "µmol"},
      {"measurement": "glucoraphanin (GR) content of reaction mixture", "setting": "[1]; 50 μM ascorbic acid, 30 min", "result": 84.24, "unit": "µmol"},
      {"measurement": "glucoraphanin (GR) content of reaction mixture", "setting": "[1]; 50 μM ascorbic acid, 45 min", "result": 80.30, "unit": "µmol"},
      {"measurement": "glucoraphanin (GR) content of reaction mixture", "setting": "[1]; 50 μM ascorbic acid, 60 min", "result": 76.36, "unit": "µmol"},
      {"measurement": "Slope of linear regression (rate of glucoraphanin consumption)", "setting": "[1]; 125 μM ascorbic acid", "result": -0.5622, "unit": "µmol/min"},
      {"measurement": "glucoraphanin (GR) content of reaction mixture", "setting": "[1]; 125 μM ascorbic acid, 0 min", "result": 93.36, "unit": "µmol"},
      {"measurement": "glucoraphanin (GR) content of reaction mixture", "setting": "[1]; 125 μM ascorbic acid, 15 min", "result": 84.52, "unit": "µmol"},
      {"measurement": "glucoraphanin (GR) content of reaction mixture", "setting": "[1]; 125 μM ascorbic acid, 30 min", "result": 75.92, "unit": "µmol"},
      {"measurement": "glucoraphanin (GR) content of reaction mixture", "setting": "[1]; 125 μM ascorbic acid, 45 min", "result": 68.09, "unit": "µmol"},
      {"measurement": "glucoraphanin (GR) content of reaction mixture", "setting": "[1]; 125 μM ascorbic acid, 60 min", "result": 59.41, "unit": "µmol"},
      {"measurement": "Slope of linear regression (rate of glucoraphanin consumption)", "setting": "[1]; 250 μM Filtered ascorbic acid", "result": -0.4714, "unit": "µmol/min"},
      {"measurement": "glucoraphanin (GR) content of reaction mixture", "setting": "[1]; 250 μM Filtered ascorbic acid, 0 min", "result": 93.36, "unit": "µmol"},
      {"measurement": "glucoraphanin (GR) content of reaction mixture", "setting": "[1]; 250 μM Filtered ascorbic acid, 15 min", "result": 86.31, "unit": "µmol"},
      {"measurement": "glucoraphanin (GR) content of reaction mixture", "setting": "[1]; 250 μM Filtered ascorbic acid, 30 min", "result": 79.44, "unit": "µmol"},
      {"measurement": "glucoraphanin (GR) content of reaction mixture", "setting": "[1]; 250 μM Filtered ascorbic acid, 45 min", "result": 71.94, "unit": "µmol"},
      {"measurement": "glucoraphanin (GR) content of reaction mixture", "setting": "[1]; 250 μM Filtered ascorbic acid, 60 min", "result": 65.18, "unit": "µmol"},
      {"measurement": "Slope of linear regression (rate of glucoraphanin consumption)", "setting": "[1]; 250 μM ascorbic acid", "result": -0.7901, "unit": "µmol/min"},
      {"measurement": "glucoraphanin (GR) content of reaction mixture", "setting": "[1]; 250 μM ascorbic acid, 0 min", "result": 93.36, "unit": "µmol"},
      {"measurement": "glucoraphanin (GR) content of reaction mixture", "setting": "[1]; 250 μM ascorbic acid, 15 min", "result": 80.95, "unit": "µmol"},
      {"measurement": "glucoraphanin (GR) content of reaction mixture", "setting": "[1]; 250 μM ascorbic acid, 30 min", "result": 69.06, "unit": "µmol"},
      {"measurement": "glucoraphanin (GR) content of reaction mixture", "setting": "[1]; 250 μM ascorbic acid, 45 min", "result": 57.63, "unit": "µmol"},
      {"measurement": "glucoraphanin (GR) content of reaction mixture", "setting": "[1]; 250 μM ascorbic acid, 60 min", "result": 45.76, "unit": "µmol"},
      {"measurement": "Slope of linear regression (rate of glucoraphanin consumption)", "setting": "[1]; 400 μM ascorbic acid", "result": -1.007, "unit": "µmol/min"},
      {"measurement": "glucoraphanin (GR) content of reaction mixture", "setting": "[1]; 400 μM ascorbic acid, 0 min", "result": 93.36, "unit": "µmol"},
      {"measurement": "glucoraphanin (GR) content of reaction mixture", "setting": "[1]; 400 μM ascorbic acid, 15 min", "result": 78.32, "unit": "µmol"},
      {"measurement": "glucoraphanin (GR) content of reaction mixture", "setting": "[1]; 400 μM ascorbic acid, 30 min", "result": 62.78, "unit": "µmol"},
      {"measurement": "glucoraphanin (GR) content of reaction mixture", "setting": "[1]; 400 μM ascorbic acid, 45 min", "result": 47.67, "unit": "µmol"},
      {"measurement": "glucoraphanin (GR) content of reaction mixture", "setting": "[1]; 400 μM ascorbic acid, 60 min", "result": 33.15, "unit": "µmol"},
      {"measurement": "Slope of linear regression (rate of glucoraphanin consumption)", "setting": "[1]; 600 μM ascorbic acid", "result": -1.2, "unit": "µmol/min"},
      {"measurement": "glucoraphanin (GR) content of reaction mixture", "setting": "[1]; 600 μM ascorbic acid, 0 min", "result": 93.36, "unit": "µmol"},
      {"measurement": "glucoraphanin (GR) content of reaction mixture", "setting": "[1]; 600 μM ascorbic acid, 15 min", "result": 75.02, "unit": "µmol"},
      {"measurement": "glucoraphanin (GR) content of reaction mixture", "setting": "[1]; 600 μM ascorbic acid, 30 min", "result": 55.66, "unit": "µmol"},
      {"measurement": "glucoraphanin (GR) content of reaction mixture", "setting": "[1]; 600 μM ascorbic acid, 45 min", "result": 37.50, "unit": "µmol"},
      {"measurement": "glucoraphanin (GR) content of reaction mixture", "setting": "[1]; 600 μM ascorbic acid, 60 min", "result": 22.09, "unit": "µmol"},
      {"measurement": "increase of reaction rate relative to absence of ascorbic acid", "setting": "[1]; 600 μmoles/Liter ascorbic acid", "result": 13, "unit": "fold"},
      {"measurement": "ascorbic acid concentration up to which myrosinase-promoted conversion increases apparently linearly, then levels off", "setting": "myrosinase [2]", "result": "about 2 mmol/L"},
      {"measurement": "sulforaphane yield versus ascorbic acid concentration", "setting": "myrosinase [3]", "result": "direct correlation between larger yield of sulforaphane and higher concentrations of ascorbic acid"}
    ]},
    {"smiles": "C[S+]([O-])CCCCN=C=S", "note": "(centres unmarked) [SFN, 1-isothiocyanato-4-methylsulfinylbutane]", "values": [
      {"measurement": "decrease in gene expression of MMP-9", "setting": "[4]; 1 μM SFN alone, Part 1 first treatment (FIG. 5a)", "result": 5, "unit": "%"},
      {"measurement": "decrease in gene expression of MMP-9", "setting": "[4]; 1 μM SFN alone, Part 1 second treatment (FIG. 5b)", "result": 13, "unit": "%"},
      {"measurement": "decrease in gene expression of MMP-9", "setting": "[4]; 5 μM SFN alone, Part 2 (FIG. 6)", "result": 39, "unit": "%"},
      {"measurement": "increase in NQO1 enzymatic activity", "setting": "[5]", "result": 3, "unit": "fold"},
      {"measurement": "elevated immunostaining of HO-1 enzyme", "setting": "heme oxygenase-1 (HO-1)", "result": 4, "unit": "fold"}
    ]},
    {"smiles": "C[C@H]1[C@H](C)CC[C@]2(C(=O)O)CC[C@]3(C)C(=CC[C@@H]4[C@@]5(C)CC[C@H](O)C(C)(C)[C@@H]5CC[C@]43C)[C@H]12", "note": "[UA, (1S,2R,4aS,6aR,6aS,6bR,8aR,10S,12aR,14bS)-10-hydroxy-1,2,6a,6b,9,9,12a-heptamethyl-2,3,4,5,6,6a,7,8,8a,10,11,12,13,14b-tetradecahydro-1H-picene-4a-carboxylic acid]", "values": [
      {"measurement": "decrease in gene expression of MMP-9", "setting": "[4]; 5 μg/mL UA alone, Part 1 first treatment (FIG. 5a)", "result": 31, "unit": "%"},
      {"measurement": "decrease in gene expression of MMP-9", "setting": "[4]; 5 μg/mL UA alone, Part 1 second treatment (FIG. 5b)", "result": 28, "unit": "%"},
      {"measurement": "decrease in gene expression of MMP-9", "setting": "[4]; 10 μg/mL UA alone, Part 2 (FIG. 6)", "result": 15, "unit": "%"}
    ]}
  ]
}
